This note sets out measurements from patent publication US20110224208A1, “NOVEL INHIBITORS OF FLAVIVIRUS REPLICATION” (KATHOLIEKE UNIVERSITEIT LEUVEN, K.U. LEUVEN R&D, priority 2008, published 2011).

≈ marks a conversion by molar mass, not a printed value.

In this test the test system is HCV replicon I389luc-ubi-neo/NS3-3'/5.1. In words: Anti-HCV replicon assay (luciferase activity) in Huh-5-2 cells. In kind it is cell-based, Hepatitis C virus. The settings on record: Hepatitis C virus, Huh-5-2, 72 h, concentration required to inhibit luciferase activity in the replicon system by 50%. As to the method:
Cells were seeded at a density of 7000 cells per well in 96 well View Plate™ (Packard) in medium containing the same components as described above, except for G418. Cells were allowed to adhere and proliferate for 24 hr. At that time, culture medium was removed and serial dilutions of the test compounds were added in culture medium lacking G418. Interferon alfa 2a (500 IU) was included as a positive control. Plates were further incubated at 37° C. and 5% CO2 for 72 hours. Replication of the HCV replicon in Huh-5 cells results in luciferase activity in the cells. Luciferase activity is measured by adding 50 μl of 1×Glo-lysis buffer (Promega) for 15 minutes followed by 50 ul of the Steady-Glo Luciferase assay reagent (Promega). Luciferase activity is measured with a luminometer and the signal in each individual well is expressed as a percentage of the untreated cultures. […] Instead the density of the culture is measured by means of the MTS method (Promega).

Consider `COCCN1C(=O)c2cc([N+](=O)[O-])ccc2C(C(=O)Nc2cccc(OC)c2)C1c1cccs1` (centres unmarked) [C3, 2-(2-methoxyethyl)-N-(3-methoxyphenyl)-7-nitro-1-oxo-3-(thiophen-2-yl)-1,2,3,4-tetrahydroisoquinoline-4-carboxamide], for which the IC50 was determined as 40.9 µg/mL (≈ 84.9 µM).

In the case of `COc1cccc(NC(=O)C2c3ccccc3C(=O)N(Cc3ccco3)C2c2cccs2)c1` (centres unmarked) [C4, 2-(Furan-2-ylmethyl)-N-(3-methoxyphenyl)-1-oxo-3-(thiophen-2-yl)-1,2,3,4-tetrahydroisoquinoline-4-carboxamide], the half-maximal inhibitory concentration (IC50) was found to be 41.5 µg/mL (≈ 90.6 µM).

On to `COCCN1C(=O)c2ccccc2C(C(=O)Nc2cccc(OC)c2)C1c1c(F)cccc1F` (centres unmarked) [C10, 3-(2,6-Difluorophenyl)-2-(2-methoxyethyl)-N-(3-methoxyphenyl)-1-oxo-1,2,3,4-tetrahydroisoquinoline-4-carboxamide], for which the midpoint of inhibition, the IC50, lay at 32.1 µg/mL (≈ 68.9 µM).

The compound `COCCN1C(=O)c2ccccc2C(C(=O)Nc2cccc(OC)c2)C1c1ccc(C)s1` (centres unmarked) [C12, 2-(2-Methoxyethyl)-N-(3-methoxyphenyl)-3-(5-methylthiophen-2-yl)-1-oxo-1,2,3,4-tetrahydroisoquinoline-4-carboxamide] had an IC50 of 1.2 µg/mL (≈ 2.66 µM). This IC50 lies about 27-fold lower than the previous one.

`COc1cccc(NC(=O)C2c3ccccc3C(=O)N(CCN(C)C)C2c2cccs2)c1` (centres unmarked) [C15, 2-(2-(Dimethylamino)ethyl)-N-(3-methoxyphenyl)-1-oxo-3-(thiophen-2-yl)-1,2,3,4-tetrahydroisoquinoline-4-carboxamide] yielded an IC50 of 11.8 µg/mL (≈ 26.3 µM).

In turn, `CCCCN1C(=O)c2ccccc2C(C(=O)Nc2cccc(OC)c2)C1c1cccs1` (centres unmarked) [C16, 2-Butyl-N-(3-methoxyphenyl)-1-oxo-3-(thiophen-2-yl)-1,2,3,4-tetrahydroisoquinoline-4-carboxamide] came in with an IC50 of 1.1 µg/mL (≈ 2.53 µM).

`COc1cccc(NC(=O)C2c3ccccc3C(=O)N(CC3CCCCC3)C2c2cccs2)c1` (centres unmarked) [C22, 2-(Cyclohexylmethyl)-N-(3-methoxyphenyl)-1-oxo-3-(thiophen-2-yl)-1,2,3,4-tetrahydroisoquinoline-4-carboxamide] yielded an IC50 of 4.09 µg/mL (≈ 8.62 µM).

In turn, `COCCN1C(=O)c2ccccc2C(C(=O)Nc2cccc(OC)c2)C1c1cc2ccccc2s1` (centres unmarked) [C27, 3-(Benzo[b]thiophen-2-yl)-2-(2-methoxyethyl)-N-(3-methoxyphenyl)-1-oxo-1,2,3,4-tetrahydroisoquinoline-4-carboxamide] returned a half-maximal inhibitory concentration (IC50) of 17.4 µg/mL (≈ 35.8 µM).

In turn, `COCCN1C(=O)c2ccccc2C(C(=O)Nc2cccc(OC)c2)C1c1ccccc1` (centres unmarked) [C28, 2-(2-Methoxyethyl)-N-(3-methoxyphenyl)-1-oxo-3-phenyl-1,2,3,4-tetrahydroisoquinoline-4-carboxamide] gave an IC50 of 38.8 µg/mL (≈ 90 µM).

For the compound `COCCN1C(=O)c2ccccc2C(C(=O)NCCOc2ccccc2)C1c1cccs1` (centres unmarked) [C34, 2-(2-Methoxyethyl)-1-oxo-N-(2-phenoxyethyl)-3-(thiophen-2-yl)-1,2,3,4-tetrahydroisoquinoline-4-carboxamide], the IC50 stood at 16.5 µg/mL (≈ 36.7 µM). Against the preceding compound, the IC50 is about 2.4-fold lower.

On to `COCCN1C(=O)c2ccccc2C(C(=O)O)C1c1cccs1` (centres unmarked) [C36, 2-(2-methoxyethyl)-1-oxo-3-(thiophen-2-yl)-1,2,3,4-tetrahydroisoquinoline-4-carboxylic acid], for which the IC50 is 47.1 µg/mL (≈ 142 µM).

As to `COCCn1c(-c2ccco2)c(C(=O)Nc2cccc(OC)c2)c2ccccc2c1=O` [C38, 3-(furan-2-yl)-2-(2-methoxyethyl)-N-(3-methoxyphenyl)-1-oxo-1,2-dihydroisoquinoline-4-carboxamide], the IC50 was 41.4 µg/mL (≈ 98.9 µM). This IC50 and that of the compound before are within 1.5-fold of each other.

`COCCN1C(=O)c2ccc(C)cc2C(C(=O)Nc2cccc(OC)c2)C1c1cccs1` (centres unmarked) [C40, 2-(2-Methoxyethyl)-N-(3-methoxyphenyl)-6-methyl-1-oxo-3-(thiophen-2-yl)-1,2,3,4-tetrahydroisoquinoline-4-carboxamide] registered an IC50 of 7.76 µg/mL (≈ 17.2 µM). Compared with the last compound, the IC50 is about 5.3-fold lower.

As for `COCCN1C(=O)c2c(C)cccc2C(C(=O)Nc2cccc(OC)c2)C1c1cccs1` (centres unmarked) [C42, 2-(2-Methoxyethyl)-N-(3-methoxyphenyl)-8-methyl-1-oxo-3-(thiophen-2-yl)-1,2,3,4-tetrahydroisoquinoline-4-carboxamide], the midpoint of inhibition, the IC50, lay at 0.5 µg/mL (≈ 1.11 µM).

`COCCN1C(=O)c2cc(Cl)ccc2C(C(=O)Nc2cccc(OC)c2)C1c1cccs1` (centres unmarked) [C43, 7-Chloro-2-(2-methoxyethyl)-N-(3-methoxyphenyl)-1-oxo-3-(thiophen-2-yl)-1,2,3,4-tetrahydroisoquinoline-4-carboxamide] gave an IC50 of 0.3 µg/mL (≈ 0.637 µM).

The compound `COCCN1C(=O)c2ccc(Cl)cc2C(C(=O)Nc2cccc(OC)c2)C1c1cccs1` (centres unmarked) [C55, 6-chloro-2-(2-methoxyethyl)-N-(3-methoxyphenyl)-1-oxo-3-(thiophen-2-yl)-1,2,3,4-tetrahydroisoquinoline-4-carboxamide] came in with an IC50 of 43 µg/mL (≈ 91.3 µM).

`COCCN1C(=O)c2cc(I)ccc2C(C(=O)Nc2cccc(OC)c2)C1c1cccs1` (centres unmarked) [C56, 7-Iodo-2-(2-methoxyethyl)-N-(3-methoxyphenyl)-1-oxo-3-(thiophen-2-yl)-1,2,3,4-tetrahydroisoquinoline-4-carboxamide]: the half-maximal inhibitory concentration (IC50) is 0.98 µg/mL (≈ 1.74 µM).

The compound `CCC1C(C(=O)Nc2cccc(OC)c2)c2ccccc2C(=O)N1CCOC` (centres unmarked) [C58, 3-Ethyl-2-(2-methoxyethyl)-N-(3-methoxyphenyl)-1-oxo-1,2,3,4-tetrahydroisoquinoline-4-carboxamide] displayed an IC50 of 1.81 µg/mL (≈ 4.73 µM).

Take `COCCN1C(=O)c2ccccc2C(C(=O)Nc2cccc(Cl)c2)C1c1cccs1` (centres unmarked) [C60, N-(3-chlorophenyl)-2-(2-methoxyethyl)-1-oxo-3-(thiophen-2-yl)-1,2,3,4-tetrahydroisoquinoline-4-carboxamide]: the IC50 is 0.98 µg/mL (≈ 2.22 µM). Compared with the last compound, the IC50 is about 1.8-fold lower.

Regarding `COCCN1C(=O)c2cccc(F)c2C(C(=O)Nc2cccc(OC)c2)C1c1cccs1` (centres unmarked) [C61, 5-Fluoro-2-(2-methoxyethyl)-N-(3-methoxyphenyl)-1-oxo-3-(thiophen-2-yl)-1,2,3,4-tetrahydroisoquinoline-4-carboxamide], inhibition was half-maximal at 0.22 µg/mL (≈ 0.484 µM) (IC50).

The compound `COc1cccc(NC(=O)C2c3ccccc3C(=O)N(CCSC)C2c2cccs2)c1` (centres unmarked) [C63, N-(3-methoxyphenyl)-2-(2-(methylthio)ethyl)-1-oxo-3-(thiophen-2-yl)-1,2,3,4-tetrahydroisoquinoline-4-carboxamide] gave an IC50 of 3.21 µg/mL (≈ 7.09 µM). Against the preceding compound, the IC50 is about 15-fold higher.

In turn, `CCN1CCCC1CN1C(=O)c2ccccc2C(C(=O)Nc2cccc(OC)c2)C1c1cccs1` (centres unmarked) [C67, 2-((1-ethylpyrrolidin-2-yl)methyl)-N-(3-methoxyphenyl)-1-oxo-3-(thiophen-2-yl)-1,2,3,4-tetrahydroisoquinoline-4-carboxamide] returned a half-inhibitory concentration (IC50) of 10.4 µg/mL (≈ 21.3 µM).

In the case of `COCCN1C(=O)c2ccccc2C(C(=O)Nc2cccc(OC)c2)C1C` (centres unmarked) [C69, 2-(2-methoxyethyl)-N-(3-methoxyphenyl)-3-methyl-1-oxo-1,2,3,4-tetrahydroisoquinoline-4-carboxamide], the half-maximal inhibitory concentration (IC50) was found to be 8.7 µg/mL (≈ 23.6 µM).

As to `CCN1CCC[C@H]1CN1C(=O)c2ccccc2C(C(=O)Nc2cccc(OC)c2)C1c1cccs1` (stereo partly drawn) [C74, 2-(((S)-1-ethylpyrrolidin-2-yl)methyl)-N-(3-methoxyphenyl)-1-oxo-3-(thiophen-2-yl)-1,2,3,4-tetrahydroisoquinoline-4-carboxamide], the IC50 amounted to 36 µg/mL (≈ 73.4 µM).

Turning to `COCCN1C(=O)c2cc(OC)c(OC)cc2C(C(=O)Nc2cccc(OC)c2)C1c1cccs1` (centres unmarked) [C75, 6,7-dimethoxy-2-(2-methoxyethyl)-N-(3-methoxyphenyl)-1-oxo-3-(thiophen-2-yl)-1,2,3,4-tetrahydroisoquinoline-4-carboxamide], 43.1 µg/mL (≈ 86.9 µM) corresponded to half-maximal inhibition (IC50). This IC50 and that of the compound before are within 1.5-fold of each other.

The compound `COCCN1C(=O)c2ccccc2C(COCc2ccccc2)C1c1cccs1` (centres unmarked) [C76, 4-(benzyloxymethyl)-2-(2-methoxyethyl)-3-(thiophen-2-yl)-3,4-dihydroisoquinolin-1(2H)-one] showed an IC50 of 22 µg/mL (≈ 54.1 µM).

For `COCCN1C(=O)c2ccc(F)cc2C(C(=O)Nc2cccc(OC)c2)C1c1cccs1` (centres unmarked) [C77, 6-fluoro-2-(2-methoxyethyl)-N-(3-methoxyphenyl)-1-oxo-3-(thiophen-2-yl)-1,2,3,4-tetrahydroisoquinoline-4-carboxamide], the IC50 was 11.2 µg/mL (≈ 24.7 µM).

As to `COCCN1C(=O)c2ccccc2C(C(=O)Nc2ccccc2-c2ccccc2)C1c1cccs1` (centres unmarked) [C84, N-(biphenyl-2-yl)-2-(2-methoxyethyl)-1-oxo-3-(thiophen-2-yl)-1,2,3,4-tetrahydroisoquinoline-4-carboxamide], the IC50 amounted to 12 µg/mL (≈ 24.9 µM).

Turning to `COCCN1C(=O)c2ccccc2C(C(=O)Nc2cccc(C)c2)C1c1cccs1` (centres unmarked) [C85, 2-(2-methoxyethyl)-1-oxo-3-(thiophen-2-yl)-N-m-tolyl-1,2,3,4-tetrahydroisoquinoline-4-carboxamide], the half-inhibitory concentration (IC50) worked out at 0.18 µg/mL (≈ 0.428 µM).

As to `COCCN1C(=O)c2ccccc2C(C(=O)Nc2ccc(Cl)c(Cl)c2)C1c1cccs1` (centres unmarked) [C87, N-(3,4-dichlorophenyl)-2-(2-methoxyethyl)-1-oxo-3-(thiophen-2-yl)-1,2,3,4-tetrahydroisoquinoline-4-carboxamide], the 50% inhibitory concentration (IC50) amounted to 0.15 µg/mL (≈ 0.316 µM).

As for `COCCN1C(=O)c2c(F)ccc(F)c2C(C(=O)Nc2cccc(OC)c2)C1c1cccs1` (centres unmarked) [C91, 5,8-difluoro-2-(2-methoxyethyl)-N-(3-methoxyphenyl)-1-oxo-3-(thiophen-2-yl)-1,2,3,4-tetrahydroisoquinoline-4-carboxamide], the IC50 was determined as 0.32 µg/mL (≈ 0.677 µM).

For `COCCN1C(=O)c2cc(C(F)(F)F)ccc2C(C(=O)Nc2cccc(OC)c2)C1c1cccs1` (centres unmarked) [C92, 2-(2-methoxyethyl)-N-(3-methoxyphenyl)-1-oxo-3-(thiophen-2-yl)-7-(trifluoromethyl)-1,2,3,4-tetrahydroisoquinoline-4-carboxamide], the IC50 is 7.04 µg/mL (≈ 14 µM).
